Test results: patent publication US6497862B2, “Composition for inhibiting body odor and uses thereof” (Kabushiki Kaisha Hayashibara, priority 2000, dated 2002)
Several values for one entry are separate records, joined by “and”; a condition that tells them apart may be missing. Equal values may be shown once. Marks after values point to notes of the source that are not given here.

Test system: 16 healthy males, ranging from 48 to 75 years old
Assay: Test on 16 volunteers: KAREI-SHU aldehydes collected from worn underwears (Experiment 8)
Type: in vivo, human
Experimental: In accordance with the test on volunteer in Experiment 7, the following experiment was conducted with more volunteers, while focusing particularly on the formation inhibitory effect on KAREI-SHU by trehalose. The number of volunteers used in this experiment was 16 healthy males, ranging from 48 to 75 years old. Cotton-made half-sleeve underwears with substantially the same quality were purchased, washed with only water and dried twice in a cyclic manner for volunteers' use as underwears during the test period. As for towels and gauzes used by volunteers during the test period, those with substantially the same quality were purchased, washed with only water and dried twice in a cyclic manner for use. The initiation day of the test was expressed with day 0, and when the volunteers use body-odor-care-goods such as deodorants and bath salts daily, they were asked to suspend their use two days before the initiation of the test, i.e., day −2.
Until about 10 a.m. on day 0, each volunteer was in a usual manner asked to take a bath to sufficiently wash their bodies including hairs. After bathing, they were sequentially allowed to wipe water drops on the surface of their bodies with towels, allowed to wear the prepared underwears, and allowed to spend their daily life as usual.
At about 5 p.m. on day 1, the underwears worn by the volunteers were collected from them and, as underwears for a […], subjected to the following analysis.
Until 10 a.m. on day 1, each volunteer was allowed to take a bath similarly as done on day 0. Just after bathing, they were allowed to wipe water drops on their body surfaces with towels, and sprayed by a sprayer over upper half parts of their bodies with a 2% (w/w) aqueous trehalose solution, which had been previously prepared and provided to the volunteers, followed by extending the solution to homogeneity over the upper half parts in such a manner of tapping on the surfaces of the parts with gauzes, which had been previously soaked in a fresh preparation of the same solution as above. By repeating the steps of spraying and extending for several times before natural dryness, trehalose was applied over the surfaces of upper half parts of the volunteers. Thereafter, the volunteers were allowed to wear new underwears prepared previously and to spend their daily life as usual.
Until about 10 a.m. on day 2, each volunteer was allowed to take a bath similarly as done on day 0. Just after bathing, the volunteers were applied with trehalose over the surfaces of their upper half parts similarly as done on day 1, then allowed to wear new underwears prepared previously and spend their daily life as usual.
At about 5 p.m. on day 3, the underwears worn by the volunteers were collected from the volunteers and, as underwears for a […], subjected to the following analysis.
The underwears collected from the volunteers in the control and test systems were instantly treated by the method in Experiment 7, followed by collecting in a column volatile aldehydes as DNPH derivatives from the underwears. The DNPH derivatives collected in the column were subjected to analysis according to the method in Experiment 7. Using as standard specimens 2-nonenal, 2-octenal, and 2-hexenal, they were separately subjected to GC analysis under the same conditions as above. Based on the gas chromatograms obtained from the above analyses, the contents (μg) of 2-nonenal, 2-octenal, and 2-hexenal, collected from the underwears in the test and control systems, were respectively determined. Respective data obtained from all the volunteers are in Table 8.
As shown in the data of the control system in Table 8, 2-nonenal, 2-octenal and 2-hexenal, known as substances causative of KAREI-SHU, were particularly detected in the underwears from volunteers age over 56. […]

[1] = individual volunteers A-P (age 48-75), 2% (w/w) aqueous trehalose solution on upper half of body

OC[C@H]1O[C@H](O[C@H]2O[C@H](CO)[C@@H](O)[C@H](O)[C@H]2O)[C@H](O)[C@@H](O)[C@@H]1O [Trehalose, trehalose]
Content of 2-Hexenal collected from volunteers' underwears, mean ± standard deviation, with trehalose application (Age 54 or under (n = 8), control 0.06 ± 0.18): 0.09 ± 0.24^ μg | Content of 2-Nonenal collected from volunteers' underwears, mean ± standard deviation, with trehalose application (Age 54 or under (n = 8), control 0.19 ± 0.21): 0.19 ± 0.40^ μg | Content of 2-Octenal collected from volunteers' underwears, mean ± standard deviation, with trehalose application (Age 54 or under (n = 8), control 1.00 ± 1.00, p < 0.05 to control): 0.21 ± 0.36^a μg | Total content of 2-nonenal, 2-octenal and 2-hexenal collected from volunteers' underwears, mean ± standard deviation, with trehalose application (Age 54 or under (n = 8), control 1.26 ± 1.02, p < 0.05 to control): 0.48 ± 0.50^a μg | Content of 2-Hexenal collected from volunteers' underwears, mean ± standard deviation, with trehalose application (Age 56 or higher (n = 8), control 5.44 ± 4.39, p < 0.05 to control): 0.71 ± 1.65^a μg | Content of 2-Octenal collected from volunteers' underwears, mean ± standard deviation, with trehalose application (Age 56 or higher (n = 8), control 5.51 ± 3.71, p < 0.05 to control): 2.59 ± 1.92^a μg | Content of 2-Nonenal collected from volunteers' underwears, mean ± standard deviation, with trehalose application (Age 56 or higher (n = 8), control 6.61 ± 3.75, p < 0.05 to control): 2.11 ± 1.87^a μg | Total content of 2-nonenal, 2-octenal and 2-hexenal collected from volunteers' underwears, mean ± standard deviation, with trehalose application (Age 56 or higher (n = 8), control 17.17 ± 10.14, p < 0.01 to control): 5.40 ± 4.66^b μg | Content of volatile aldehydes collected from volunteer, 2-Hexenal, with trehalose application (test system) [1]: 0.00 μg (13×) and 0.68 μg and 0.95 μg and 4.70 μg | Content of volatile aldehydes collected from volunteer, 2-Octenal, with trehalose application (test system) [1]: 0.24 μg and 0.28 μg and 1.04 μg and 0.00 μg (5×) and 1.82 μg and 1.07 μg and 2.59 μg and 1.13 μg and 5.43 μg and 4.24 μg and 4.42 μg and 0.11 μg | Content of volatile aldehydes collected from volunteer, Nonenal, with trehalose application (test system) [1]: 0.17 μg and 0.00 μg (6×) and 0.18 μg and 1.17 μg and 1.66 μg and 1.10 μg and 1.41 μg and 0.35 μg and 2.71 μg and 4.65 μg and 4.99 μg | Content of volatile aldehydes collected from volunteer, Total of 2-nonenal, 2-octenal and 2-hexenal, with trehalose application (test system) [1]: 0.41 μg and 0.97 μg and 1.04 μg and 0.18 μg and 1.17 μg and 3.48 μg and 1.10 μg and 1.07 μg and 4.96 μg and 1.47 μg and 8.14 μg and 8.89 μg and 14.12 μg and 0.00 μg (2×) and 0.11 μg
